A short description of one data set: in vitro. Particulars: rat. On the procedure:
(§1) Embryonic rat striatal neurons were conditionally immortalized by stably transfecting a temperature-sensitive SV40 large T-antigen (T-ag) to generate the ST14A cell line. ST14A cells proliferate at the permissive temperature (33° C.), but stop dividing at 39° C., as a result of T-ag degradation. […] As htt protein context modulates polyQ toxicity, testing these different length htt proteins could provide insight into the basis for context dependence.
(§2) ST14A Assay System: Calcein acetoxylmethyl ester (AM) (Molecular Probes, Eugene, Oreg.) is a non-fluorescent, membrane-permeable compound that is cleaved by intracellular esterases, which subsequently forms the anionic, fluorescent compound, calcein, that cannot permeate the cell membrane. […] A fluorescence viability assay, that is based on conversion of a non-fluorescent substrate (calcein AM) to a fluorescent product by nonspecific esterases in live cells, was employed to monitor cell death in wild type (wt) ST14A-Htt and mut ST14A-Htt cell lines. Cell death is indicated by a decrease in fluorescence. […] 3 μl of each compound was transferred from daughter plates to triplicate assay plates for a final assay concentration of 4 μg/ml in 0.1% DMSO (10 μM for NINDS compounds). Cells were incubated at 33° C. for 3 h to enhance attachment and then shifted to 39° C. (with 5% CO2). After 3 days (d), cells were washed 10 times with phosphate buffered saline (PBS) leaving 20 μl residual PBS per well, and 20 μl of 2 μg/ml calcein AM (Molecular probes) in PBS was added per well. […] The fluorescence intensity in each well was normalized to the median of each plate. The median normalized fluorescence of each triplicate assay wells was determined. A well with more than 50% increase in intensity above the median signal intensity was considered a “hit.”
(§3) Assay Development: An assay was developed for detecting mutant htt-induced cell death in ST14A cells in a 384-well plate format. A calcein AM-based method was used to detect cell viability, and optimized the cell number and time course for this method. […] A cell number titration was performed to determine the cell density at which calcein fluorescence was not saturated and the coefficient of variation (CV) was low (FIG. 14A-B). A low CV is critical for a high-throughput assay as it decreases noise and enhances sensitivity. […] Next, the kinetics of the fluorescence signal were determined.
(§4) Next, the serum concentrations that induce cell death in these cells were determined. Cells were seeded in decreasing serum (IFS) concentrations (5 to 0%), and cell viability was assayed after 3 d using the calcein AM assay (FIG. 14E).
(§5) A Z′ value of greater than 0 is required for a usable assay, with a maximum value of 1.0 for an ideal assay. For the assay, calcein fluorescence was used on the day of seeding to represent 100% rescue. The difference in calcein fluorescence signal on the day of seeding and after different number of days under serum deprivation was determined and used to calculate the Z′ factor. […] About 47,000 compounds were assayed in a 384-well plate format in triplicate to enhance the reliability of the primary screen.

Another data set concerns N548 mutant cells. Description: cells. Conditions: for EC50 / maximal fold induction: Rattus norvegicus; for Activity: nonselective hits, scale not defined; for selectivity profile of cell death rescue in panel of htt expressing cell lines: N63, N548, FL htt cell lines, in words; for maximal fold induction: read-out: N548 Mut: Max, maximum rescue expressed as fold over DMSO treated N548 mutant cells. On the procedure: as §1, §2, §3, §4, §5

In data set [1] the test system is PC12 expressing Q103 exon 1 htt. Kind of data set: PC12 HD model, Alamar Blue viability. It counts as cell-based. Conditions: for EC50: Rattus norvegicus, PC-12, unit inferred; for PC12 rescue: percent increase in viability in compound treated cells above DMSO treated: — = no activity in the assay (footnote n.a.). On the procedure:
For enhanced stability the repeat portion consists of alternating CAG/CAA repeats. […] Mutant (mut) htt was induced by the ecdysone receptor agonist, tebufenozide.
For the PC12 assay, 7500 cells/well were plated in 384-well plates in 57 μl of PC12 medium with tebufenozide (1 μM). Compounds (3 μl) from daughter plates were added to the cells and incubated at 37° C. After 48 h, 20 μl of 40% Alamar Blue (Biosource, CA) in PC12 media was added per well and cells incubated for 12 h at 37° C. […] Fluorescence intensity was determined using a Packard Fusion plate reader with an excitation filter centered on 535 nm and an emission filter centered on 590 nm. Average percentage inhibition at each concentration was calculated.
Background: Resazurin is reduced to fluorescent resorufin, in cell work by metabolically active cells.

Data set [2] relates to ASH neurons in C. elegans HD model (pqe-1; Htn-Q150). Description: Neuronal survival assay, worm HD model. In kind it is in vivo. Particulars: 2 d after treatment, revertin-2 0.8 mg/ml, revertin-1a 1 mg/ml, p<0.02. The protocol:
One hundred synchronized L1 worms (pqe-1; Htn-Q150) (Faber P., et al, Proc Natl Acad Sci 99: 17131-6; Wood W., Cold Spring Harbor Laboratory, NY) were added to 5 wells (20 worms/well). Each well contained 50 μl food suspension (6.6 O.D.) pre-mixed with compound or DMSO in a 96-well plate. Worms were incubated for 2 d at 15° C., washed in S-media, immobilized with 5 mM sodium azide on a microscopic glass slide and GFP fluorescence was examined using an Axoplan2 fluorescence microscope (ex 485/em 535 nm). Live (GFP positive) Anterior Sensory Horn (ASH) neurons were counted in at least 50 worms (100 neurons). Data were subjected to a two-tailed Student t-test.
Worm HD Model. A C. elegans model of HD was optimized for testing compounds. In this model, larval ASH neurons that express mutant htt in a poly Q enhancer-1 mutant background, die over 2-3 days after hatching (Faber P, et al, Proc Natl Acad Sci USA 2002, 99: 17131-6). Neuronal death was monitored by loss of GFP expression in ASH neurons. Since the effective concentration of compounds in worms can vary widely from those in cell culture, concentrations to test in worms were based on an assay (FIG. 19). The effective concentrations in worms for all compounds were determined and tested for rescue of neuronal cell death. […] Thus, the ST14A cell culture model can be used to identify compounds that are active in in vivo models of HD. […] Compounds in this series were active in both the worm and PC12 HD models (FIG. 18B-C). The revertin-1 series has certain features making it an attractive candidate for lead development including different analogues that are active, a low molecular weight (˜400) making it likely that it can cross the blood brain barrier; furthermore, it is synthetically tractable.

In the next data set the test system is parental ST14A cells. Kind of data set: Cell death rescue in parental cells (selectivity counter screen). In kind it is cell-based, rat. Particulars: in words. On the procedure: Cell death is indicated by a decrease in fluorescence. […] (with 5% CO2).
Identification of selective inhibitors of mutant-htt toxicity: As a first step towards probing mechanisms of action of these compounds, it was tested whether compounds selectively targeted pathways that are perturbed by mutant htt or if they suppressed a general death mechanism. Caspase activation was tested to see if it contributed to cell death in this model, since caspase-dependent pathways have been broadly implicated in cell death and in HD (Thornberry, N. and Y. Lazebnik, Science 1998, 281:1312-6; Sanchez Mejia, R and R. Friedlander Neuroscientist 2001, 7: 480-9; Hickey M. and M. Chesselet, Prog Neuropsychopharmacol Biol Psych 2003, 27: 255-65). Caspase activation was monitored via measuring the cleavage of specific fluorogenic caspase substrates. […] The decreased caspase activation in WT N548 cells was consistent with relative protection of these cells from cell death. […] Thus, the ability of a compound to rescue cell death in ST14A cells could be used as a selectivity filter to differentiate compounds that were selective for pathways selective for mutant htt induced cell death. The selectivity of rescue by a compound was determined by assessing rescue of cell death in parental ST14A cells. […]

Where [3] appears, read: read-out: EC50 based on activity in N548 mutant cells.

≈ marks a conversion by molar mass, not a printed value. Read-outs that look alike come from different tables or passages of the source.

For `O=C(O)c1ccccc1Nc1cccc(C(F)(F)F)c1` [Flufenamic Acid, reference compound], the CC50 at 3 days in the data set “in vitro” (ST14A striatal cells expressing N548 mutant human htt) was found to be 40 µM. In the data set on N548 mutant cells (ST14A, 72 h), this compound returned an EC50 of 5 µM. In the data set on N548 mutant cells, the Activity is reported as 1.5.
For the compound `CC[n+]1c(-c2ccccc2)c2cc(N)ccc2c2ccc(N)cc21` [Homidium Bromide, reference compound], in the data set “in vitro”, the CC50 is 15 µM. Moreover, the concentration for a half-maximal effect (EC50) in the data set on N548 mutant cells (ST14A, 72 h) is 10 µM. In the data set on N548 mutant cells, the Activity is given as 1.5.
Consider `CCCc1cc(OC(=O)c2ccccc2F)n(-c2cccc(F)c2)n1` [revertin-1a], for which, in the data set with N548 mutant cells, the “selectivity profile of cell death rescue in panel of htt expressing cell lines” value (“selectivity profile of cell death rescue” below) is listed as “selectively rescued cell death in all mutant htt-expressing cell lines”. Further, the maximal fold induction with N548 mutant cells (72 h) is 2.5. Moreover, the EC50 in the data set with N548 mutant cells (setting [3]) came to 4 µg/mL. Further, in data set [1], the EC50 turned out to be 50 µg/mL (≈ 146 µM) and the “PC12 rescue: percent increase in viability in compound treated cells above DMSO treated” value (“PC12 rescue: percent increase” below) amounted to 21%. Further, in data set [2], the “ASH neuronal cell survival” value is listed as “enhance ASH neuronal cell survival”.
Consider `CCCCCCCCCC(=O)Oc1cc(-c2ccccc2)nn1-c1cccc(F)c1` [revertin-1c], for which the “selectivity profile of cell death rescue” value is “selectively rescued cell death in all mutant htt-expressing cell lines” with N548 mutant cells and “selectively rescues cell death in three mutant htt expressing cell lines” in the data set on N548 mutant cells (listed as Rev-1c). For the same compound, in the data set on N548 mutant cells (72 h), the maximal fold induction turned out to be 2.5. In addition, the results for the EC50 (in the data set with N548 mutant cells (setting [3]); in data set [1]) were 4 µg/mL and 40 µg/mL (≈ 97.9 µM), respectively. Moreover, in the data set with parental ST14A cells, the “rescue of cell death in parental ST14A cells” value was “not in parental ST14A cells”. Also, in data set [1], the “PC12 rescue: percent increase” value is recorded as 23%.
Consider `COc1c2c(cc3c1C(CC(=O)/C=C/c1ccco1)[N+](C)(C)CC3)OCO2` (centres unmarked) [revertin-2], for which, in the data set with N548 mutant cells, the “selectivity profile of cell death rescue” value is recorded as “protective in all three mutant htt versions”. Besides, the maximal fold induction in the data set with N548 mutant cells (72 h) is 4. The half-maximal effective concentration (EC50) came to 3 µg/mL with N548 mutant cells (setting [3]) and 13 µg/mL in data set [1]. In addition, the “PC12 rescue: percent increase” value in data set [1] was found to be 34%. For the same compound, the entries for the “ASH neuronal cell survival” value in data set [2] and in data set [2] (listed as rev-2) were “enhance ASH neuronal cell survival” and “rescued ASH neuronal cell death”, respectively.

The EC50 is the concentration needed to bring the measured effect to its halfway point.

For the origin of these results see patent US20100022637A1, “IDENTIFICATION OF ANTI-CANCER COMPOUNDS AND COMPOUNDS FOR TREATING HUNTINGTON'S DISEASE AND METHODS OF TREATMENT THEREOF” (THE TRUSTEES OF COLUMBIA UNIVERSITY IN THE CITY OF NEW YORK, priority 2005, published 2010).
